# In patent publication US9682980B2, “Positive allosteric modulators of mGluR2” (BRISTOL-MYERS SQUIBB COMPANY, priority 2012, dated 2017):
# What was measured:
# [1] = tested on: schizophrenia; details: cited from earlier work
# [2] = tested on: GAD patients; details: cited from earlier work
# [3] = molecular target: human mGluR2 (Homo sapiens (Human), UniProt Q14416); experiment: MGluR2 cAMP assay; type: cell-based; details: HEK293 cells clonally expressing human mGluR2, 1 μM forskolin, 1 μM LY-341495
# Outline: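 HEK293 cells expressing human mGluR2, glutamate-starved overnight, stimulated 30 min in HBSS pH 7.0 with 1 mM IBMX, 1 μM forskolin and 1 μM LY-341495. cAMP measured by HTRF (665/618 nm ratio) against a cAMP standard curve; EC50 from 4-parameter logistic fit of % inhibition.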
# [4] = tested on: rats treated with phencyclidine (PCP); details: cited from earlier work
# Chain of human mGluR2 (Q14416 19-872): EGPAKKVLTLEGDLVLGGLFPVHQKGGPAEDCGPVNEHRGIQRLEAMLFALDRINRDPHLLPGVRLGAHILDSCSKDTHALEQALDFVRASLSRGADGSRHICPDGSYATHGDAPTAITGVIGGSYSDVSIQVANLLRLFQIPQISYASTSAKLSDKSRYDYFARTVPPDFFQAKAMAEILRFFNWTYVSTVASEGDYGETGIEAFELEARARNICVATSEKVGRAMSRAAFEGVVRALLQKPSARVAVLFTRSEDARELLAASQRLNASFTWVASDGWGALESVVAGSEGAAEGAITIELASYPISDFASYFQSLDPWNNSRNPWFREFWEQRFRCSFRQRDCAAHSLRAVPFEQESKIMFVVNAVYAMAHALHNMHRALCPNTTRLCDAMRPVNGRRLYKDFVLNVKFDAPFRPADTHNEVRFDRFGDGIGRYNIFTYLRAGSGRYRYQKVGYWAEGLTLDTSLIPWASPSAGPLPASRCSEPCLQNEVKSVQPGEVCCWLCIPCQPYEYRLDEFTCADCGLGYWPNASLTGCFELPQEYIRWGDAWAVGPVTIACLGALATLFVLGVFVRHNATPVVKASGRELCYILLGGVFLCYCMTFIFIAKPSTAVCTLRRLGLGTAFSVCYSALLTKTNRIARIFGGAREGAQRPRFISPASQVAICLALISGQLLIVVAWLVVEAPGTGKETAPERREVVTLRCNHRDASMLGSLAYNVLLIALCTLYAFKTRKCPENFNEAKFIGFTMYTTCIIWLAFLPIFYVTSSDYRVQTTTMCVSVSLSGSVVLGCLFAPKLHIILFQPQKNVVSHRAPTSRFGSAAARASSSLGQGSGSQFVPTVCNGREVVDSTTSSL
SMILES,EC50 [3] [nM],other results
CSCC[C@H](N)C(=O)N[C@@]1(C(=O)O)CS(=O)(=O)[C@H]2[C@H](C(=O)O)[C@H]21 [LY-2140023],,positive and negative symptoms in schizophrenia [1]: relief of positive and negative symptoms
C[C@H](N)C(=O)N[C@@]1(C(=O)O)CC[C@H]2[C@H](C(=O)O)[C@H]21 [LY-544344],,therapeutic effects for anxiety [2]: therapeutic effects
"COc1cccnc1C1CCN(c2cnn3c(CC(F)(F)F)nnc3c2Cl)CC1 [Example 83, 8-Chloro-7-(4-(3-methoxypyridin-2-yl)piperidin-1-yl)-3-(2,2,2-trifluoroethyl)-[1,2,4]triazolo[4,3-b]pyridazine]",42,
"FC(F)(F)Cc1nnc2c(Cl)c(N3CCC(c4ccccc4C(F)(F)F)CC3)cnn12 [Example 66, 8-Chloro-3-(2,2,2-trifluoroethyl)-7-(4-(2-(trifluoromethyl)phenyl)piperidin-1-yl)-[1,2,4]triazolo[4,3-b]pyridazine]",23,
"Fc1ccc(C2CCN(c3cnn4c(CC5CC5)nnc4c3Cl)CC2)c(F)c1 [Example 74, 8-Chloro-3-(cyclopropylmethyl)-7-(4-(2,4-difluorophenyl)piperidin-1-yl)-[1,2,4]triazolo[4,3-b]pyridazine]",14,
"COc1cccc(F)c1C1CCN(c2cc3nnc(CC4CC4)n3cn2)CC1 [Example 34, 3-(Cyclopropylmethyl)-7-(4-(2-fluoro-6-methoxyphenyl)piperidin-1-yl)-[1,2,4]triazolo[4,3-c]pyrimidine]",649,
N[C@@]1(C(=O)O)CC[C@H]2[C@H](C(=O)O)[C@H]21 [LY-354740],,brain glutamate levels [4]: lowered brain glutamate levels; behavioral effects of PCP ([4]; hyper-locomotion and working memory deficits): reversed the behavioral effects of PCP
"Clc1c(N2CCC(Cc3ccccc3)CC2)ncn2c(CC3CC3)nnc12 [Example 8, 7-(4-Benzylpiperidin-1-yl)-8-chloro-3-(cyclopropylmethyl)-[1,2,4]triazolo[4,3-c]pyrimidine]",61,
"COc1cccc(F)c1C1CCN(c2cnn3c(CC(F)(F)F)nnc3c2Cl)CC1 [Example 26, 8-Chloro-7-(4-(2-fluoro-6-methoxyphenyl)piperidin-1-yl)-3-(2,2,2-trifluoroethyl)-[1,2,4]triazolo[4,3-b]pyridazine]",2,
"FC(F)(F)Cc1nnc2c(Cl)c(N3CCC(c4cccc(Cl)c4Cl)CC3)cnn12 [Example 60, 8-Chloro-7-(4-(2,3-dichlorophenyl)piperidin-1-yl)-3-(2,2,2-trifluoroethyl)-[1,2,4]triazolo[4,3-b]pyridazine]",94,
"Clc1c(N2CCC(c3ccccc3)CC2)cnn2c(CC3CC3)nnc12 [Example 5, 8-Chloro-3-(cyclopropylmethyl)-7-(4-phenylpiperidin-1-yl)-[1,2,4]triazolo[4,3-b]pyridazine]",19,
